From patent publication US20220274967A1, “BCAT MODULATION” (Icagen, LLC, priority 2019, published 2022)

biological target: T1, BCAT2 (Homo sapiens, UniProt O15382); experiment: BCAT2 enzyme inhibition (human); format: biochemical
T1 sequence (O15382 28-392): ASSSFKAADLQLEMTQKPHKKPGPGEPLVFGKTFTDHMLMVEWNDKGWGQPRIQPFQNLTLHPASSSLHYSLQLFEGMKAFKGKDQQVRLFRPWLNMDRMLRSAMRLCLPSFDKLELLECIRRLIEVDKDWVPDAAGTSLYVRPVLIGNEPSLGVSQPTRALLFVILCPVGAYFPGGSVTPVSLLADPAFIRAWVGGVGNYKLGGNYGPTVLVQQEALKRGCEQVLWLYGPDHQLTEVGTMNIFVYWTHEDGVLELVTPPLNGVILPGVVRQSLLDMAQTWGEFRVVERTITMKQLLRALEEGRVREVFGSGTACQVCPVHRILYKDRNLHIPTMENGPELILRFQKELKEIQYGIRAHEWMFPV
Procedure: In further embodiments, the functional modulation of BCAT2 is assayed using a cell-free assay. In various embodiments, the cell-free assay is an enzyme-coupled fluorescent assay. For example, the disclosure contemplates use of an assay that monitors the production of L-glutamate from branch-chain amino acids and α-ketoglutarate through the coupling of hBCATm activity to two additional enzymes, L-Glutamate Oxidase (L-GOx) and Horseradish Peroxidase (HRP). Specifically, L-GOx catabolizes L-glutamate to generate α-ketoglutarate and […], the latter being utilized by HRP and leading to the formation of fluorescent resorufin from the redox-sensitive dye Amplex Red. In some embodiments, the test compound is classified as a candidate compound if a decrease in L-glutamate is measured. In further embodiments, the test compound is classified as a candidate compound if a decrease in α-ketoglutarate is measured.

Structure (SMILES)	IC50 [nM]
CNC(=O)c1ccc2c(c1)nc(-c1cccc(C)n1)n2[C@H]1CCC[C@@H](NC(=O)c2ccc(Br)s2)C1 [Compound 148]	< 100
CNC(=O)c1ccc2c(c1)nc(-c1ccc(C)cc1)n2[C@H]1CCC[C@@H](NC(=O)c2ccc(Br)s2)C1 [Compound 170]	500 to 1000
CNC(=O)c1ccc2c(c1)nc(-c1cc(Cl)ccc1O)n2[C@H]1CCC[C@@H](NC(=O)c2ccc(C#N)s2)C1 [Compound 179]	100 to 500
CNC(=O)c1ccc2c(c1)nc(-c1ccc(Cl)cc1)n2[C@H]1CCC[C@@H](NC(=O)c2ccc(Br)s2)C1 [Compound 164]	100 to 500
CNC(=O)c1ccc2c(c1)nc(-c1ccc(OC)c(OC)c1)n2[C@H]1CCC[C@@H](NC(=O)c2ccc(Br)s2)C1 [Compound 158]	> 1000
CNC(=O)c1ccc2c(c1)nc(-c1ccc3c(c1)OC(F)(F)O3)n2[C@H]1CCC[C@@H](NC(=O)c2ccc(Br)s2)C1 [Compound 160]	> 1000
CNC(=O)c1ccc2c(c1)nc(-c1ccc(C)s1)n2[C@H]1CCC[C@@H](NC(=O)c2ccc(Br)s2)C1 [Compound 171]	100 to 500
CNC(=O)c1ccc2c(c1)nc(-c1ccc(C#N)cc1)n2[C@H]1CCC[C@@H](NC(=O)c2ccc(Br)s2)C1 [Compound 162]	> 1000
CNC(=O)c1ccc2c(c1)nc(-c1ccc(O)cn1)n2[C@H]1CCC[C@@H](NC(=O)c2ccc(Br)s2)C1 [Compound 186]	100 to 500
CNC(=O)c1ccc2c(c1)nc(-c1ccc(O)cn1)n2[C@H]1CCC[C@@H](NC(=O)c2ccc(Cl)s2)C1 [Compound 191]	> 1000
O=C(N[C@H]1CCC[C@@H](n2c(-c3ccccn3)nc3cc(CO)ccc32)C1)c1ccc(Br)s1 [Compound 119]	100 to 500
CNC(=O)c1ccc2c(c1)nc(-c1ccccn1)n2[C@@H]1CCC[C@H](NC(=O)c2ccc(Br)cc2)C1 [Compound 114]	100 to 500
CNC(=O)c1ccc2c(n1)nc(-c1ccccn1)n2[C@@H]1CCC[C@H](NC(=O)c2ccc(Br)s2)C1 [Compound 305]	> 1000
CNC(=O)c1ccc2c(c1)nc(-c1ccccc1N1CCOCC1)n2[C@H]1CCC[C@@H](NC(=O)c2ccc(Br)s2)C1 [Compound 159]	100 to 500
CNC(=O)c1ccc2c([C@H]3CCC[C@H](NC(=O)c4ccc(-c5ccccc5)s4)C3)c(-c3ccccc3)[nH]c2c1 [Compound 282]	> 1000
CNC(=O)c1ccc2c(c1)nc(-c1cc(Cl)ccc1O)n2[C@H]1CCC[C@@H](NC(=O)c2ccc(Cl)s2)C1 [Compound 190]	100 to 500
CNC(=O)c1ccc2c(c1)nc(-c1ccc(C#N)c(Cl)n1)n2[C@H]1CCC[C@@H](NC(=O)c2ccc(C#N)s2)C1 [Compound 187]	> 1000
C#Cc1cccc(-c2nc3cc(C(=O)NC)ccc3n2[C@H]2CCC[C@@H](NC(=O)c3ccc(Br)s3)C2)c1 [Compound 167]	> 1000
COC(=O)c1ccc2c(n1)nc(-c1ccccn1)n2[C@@H]1CCC[C@H](NC(=O)c2ccc(Br)s2)C1 [Compound 301]	100 to 500
CNC(=O)c1ccc2c(c1)nc(-c1cc(Cl)cc(C)c1O)n2[C@H]1CCC[C@@H](NC(=O)c2ccc(Br)s2)C1 [Compound 182]	> 1000
CNC(=O)c1ccc2c(c1)nc(-c1csc3c1CCCC3)n2[C@H]1CCC[C@@H](NC(=O)c2ccc(Br)s2)C1 [Compound 168]	500 to 1000
CNC(=O)c1ccc2c(c1)nc(-c1ccccn1)n2[C@@H]1CCC[C@H](NC(=O)c2ccc(Br)o2)C1 [Compound 125]	> 1000
CNC(=O)c1ccc2c(c1)nc(-c1ncccc1OC)n2[C@H]1CCC[C@@H](NC(=O)c2ccc(Br)s2)C1 [Compound 150]	> 1000
CNC(=O)c1ccc2c(c1)nc(-c1ccccc1NC(C)=O)n2[C@H]1CCC[C@@H](NC(=O)c2ccc(C#N)s2)C1 [Compound 130]	500 to 1000
COC(=O)c1ccc2c(n1)nc(-c1ccccn1)n2[C@H]1CCC[C@@H](NC(=O)c2cccs2)C1 [Compound 300]	> 1000
CNC(=O)c1ccc2c(c1)nc(-c1ccc(C)cn1)n2[C@H]1CCC[C@@H](NC(=O)c2ccc(Br)s2)C1 [Compound 153]	500 to 1000
